According to patent US11414422B2, “Substituted pyrido[4,3-b]indoles and azepino[4,5-b]indoles as inhibitors of cGAS” (The Rockefeller University, priority 2018, dated 2022):

Tests used:
[1] = target: T1, h-cGAS (Homo sapiens, UniProt Q8N884); assay: cGAS biochemical assay, RapidFire 365 mass spectrometry (RF-MS); settings: full-length h-cGAS 100 nM, dsDNA 25 nM, ATP and GTP 100 μM, 7 h at RT
T1 construct: The final concentration of full-length h-cGAS, dsDNA, ATP, and GTP were 100 nM

[2] = system: THP1-Dual cells; assay: Cell-based Lucia luciferase assay in THP1-Dual cells (dsDNA transfection); settings: Homo sapiens, 1 h pre-incubation, 100-bp dsDNA transfection for 24 h

T1 sequence (Q8N884 whole entry): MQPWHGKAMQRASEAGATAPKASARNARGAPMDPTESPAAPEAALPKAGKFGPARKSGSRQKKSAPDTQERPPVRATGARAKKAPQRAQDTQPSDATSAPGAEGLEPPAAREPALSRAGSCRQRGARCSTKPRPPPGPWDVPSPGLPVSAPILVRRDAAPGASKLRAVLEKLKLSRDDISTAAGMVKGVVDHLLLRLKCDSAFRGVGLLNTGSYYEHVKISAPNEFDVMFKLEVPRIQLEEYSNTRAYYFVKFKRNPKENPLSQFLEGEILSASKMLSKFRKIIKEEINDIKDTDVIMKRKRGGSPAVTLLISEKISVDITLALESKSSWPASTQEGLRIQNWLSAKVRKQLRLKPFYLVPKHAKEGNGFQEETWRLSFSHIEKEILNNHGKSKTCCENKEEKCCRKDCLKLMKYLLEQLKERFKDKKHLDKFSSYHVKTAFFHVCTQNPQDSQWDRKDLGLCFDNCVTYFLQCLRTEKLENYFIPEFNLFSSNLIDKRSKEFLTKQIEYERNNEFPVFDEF

| Compound | IC50 [1] | IC50 [2] |
| --- | --- | --- |
| O=C(CO)N1CCc2[nH]c3c(Cl)c(Cl)cc(-c4cnc(C(F)(F)F)nc4)c3c2C1 [TDI-008451] | 9780 nM |  |
| Cn1nc(C(F)(F)F)cc1-c1cc(Cl)c(Cl)c2[nH]c3c(c12)CN(C(=O)CO)CC3 [TDI-008452] | 2910 nM |  |
| O=C(CO)N1CCc2[nH]c3c(Cl)c(Cl)cc(-c4cncc(C(F)(F)F)c4)c3c2C1 [TDI-008455] | 154 nM |  |
| O=C(CO)N1CCc2[nH]c3c(Cl)c(Cl)cc(-c4ccc5c(c4)OCO5)c3c2C1 [TDI-008457] | 44.6 nM |  |
| Cc1nc2ccc(-c3cc(Cl)c(Cl)c4[nH]c5c(c34)CN(C(=O)CO)CC5)cc2n1C [TDI-008460] | 830 nM |  |
| Cn1c(=O)[nH]c2cc(-c3cc(Cl)c(Cl)c4[nH]c5c(c34)CN(C(=O)CO)CC5)ccc21 [TDI-008461] | 344 nM |  |
| O=C1COc2cc(-c3cc(Cl)c(Cl)c4[nH]c5c(c34)CN(C(=O)CO)CC5)ccc2N1 [TDI-008462] | 1200 nM |  |
| O=C(CO)N1CCc2[nH]c3c(Cl)c(Cl)cc(-c4ccc(S(=O)(=O)NCCCO)cc4)c3c2C1 [TDI-008464] | 3910 nM |  |
| O=C(CO)N1CCc2[nH]c3c(Cl)c(Cl)cc(-c4ccn(C(F)F)n4)c3c2C1 [TDI-008474] | 18 nM |  |
| CNC(=O)c1cc(Cl)c(F)c2[nH]c3c(c12)CN(C(=O)CO)CC3 [TDI-008520] | 1040 nM |  |
| CC(=O)Nc1cc(Cl)c(F)c2[nH]c3c(c12)CN(C(=O)CO)CC3 [TDI-008522] | 365 nM |  |
| Cc1nc(C)c(-c2cc(Cl)c(Cl)c3[nH]c4c(c23)CN(C(=O)CO)CC4)[nH]1 [TDI-008605] | 568 nM |  |
| Cc1noc(-c2cc(Cl)c(Cl)c3[nH]c4c(c23)CN(C(=O)CO)CC4)n1 [TDI-008768] | 22.6 nM | 5800 nM |
| Cc1nnc(-c2cc(Cl)c(Cl)c3[nH]c4c(c23)CN(C(=O)CO)CC4)o1 [TDI-008777] | 30.5 nM | 12900 nM |
| Cn1ccc(-c2cc(Br)c(F)c3[nH]c4c(c23)CN(C(=O)CO)CC4)n1 [TDI-008783] | 17.2 nM | 3410 nM |
| Cn1ccc(-c2cc(Cl)c(OCC(F)F)c3[nH]c4c(c23)CN(C(=O)CO)CC4)n1 [TDI-008796] | 984 nM | > 40000 nM |

| Compound | IC50 [1] | IC50 [2] |
| --- | --- | --- |
| CCOc1c(Cl)cc(-c2ccn(C)n2)c2c3c([nH]c12)CCN(C(=O)CO)C3 [TDI-008797] | 351 nM |  |
| O=C(CO)N1CCc2[nH]c3c(F)c(Cl)cc(N4CCCC4)c3c2C1 [TDI-008860] | 350 nM | > 10000 nM |
| O=C(CO)N1CCc2[nH]c3c(F)c(Cl)cc(N4CCC5CC54)c3c2C1 (centres unmarked) [TDI-008861] | 480 nM | > 10000 nM |
| C[C@@H]1CCN(c2cc(Cl)c(F)c3[nH]c4c(c23)CN(C(=O)CO)CC4)C1 [TDI-008862] | 478 nM |  |
| CC1CCN(c2cc(Cl)c(F)c3[nH]c4c(c23)CN(C(=O)CO)CC4)C1 (centres unmarked) [TDI-008863] | 147 nM | > 10000 nM |
| O=C(CO)N1CCc2[nH]c3c(F)c(Cl)cc(N4CCC(O)C4)c3c2C1 (centres unmarked) [TDI-008864] | 455 nM | > 10000 nM |
| N#CC1CCN(c2cc(Cl)c(F)c3[nH]c4c(c23)CN(C(=O)CO)CC4)C1 (centres unmarked) [TDI-008865] | 1580 nM | > 10000 nM |
| O=C(CO)N1CCc2[nH]c3c(F)c(Cl)cc(N4CCC(F)(F)C4)c3c2C1 [TDI-008866] | 452 nM | > 10000 nM |
| Cc1nc(-c2cc(Cl)c(Cl)c3[nH]c4c(c23)CN(C(=O)CO)CC4)no1 [TDI-008937] | 77.6 nM | 16100 nM |
| C[C@@H]1CN(C(=O)CO)Cc2c1[nH]c1c(F)c(Cl)cc(-c3ccn(C)n3)c21 [TDI-009000] | 24.5 nM | 2890 nM |
| C[C@H]1CN(C(=O)CO)Cc2c1[nH]c1c(F)c(Cl)cc(-c3ccn(C)n3)c21 [TDI-009001] | 32.7 nM | 3180 nM |
| Cn1ncc(-c2cc(Cl)c(Cl)c3[nH]c4c(c23)CN(C(=O)CO)CC4)n1 [TDI-009007] | 23.3 nM | 1150 nM |
| O=C(CO)N1CCc2[nH]c3c(F)c(Cl)cc(-n4cccn4)c3c2C1 [TDI-009013, 1-(7-chloro-6-fluoro-9-pyrazol-1-yl-1,3,4,5-tetrahydropyrido [4,3-b]indol-2-yl)-2-hydroxy-ethanone] | 583 nM | > 40000 nM |
| O=C(CO)N1CCc2[nH]c3c(F)c(Cl)cc(N4CCCC4=O)c3c2C1 [TDI-009072] | 18600 nM | > 40000 nM |
| Cn1ncc(-c2cc(Cl)c(F)c3[nH]c4c(c23)CN(C(=O)CO)CC4)n1 [TDI-009186] | 17.6 nM | 720 nM |
| Cn1ccc(-c2cc(Cl)c(C#N)c3[nH]c4c(c23)CN(C(=O)CO)CC4)n1 [TDI-009208] | 39.2 nM | 4400 nM |
